Reference: patent publication US7786356B2, “Method for the production of calendic acid, a fatty acid containing delta 8,10,12 conjugated double bonds and related fatty acids having a modification at the delta 9 position” (E.I. du Pont de Nemours and Company, priority 1999, dated 2010)

Tested on: pigs (barrows)
Experiment: Belly (fat) compression test in pigs fed conjugated fatty acids
Assay type: in vivo, pig
Protocol: Experiments were conducted to evaluate the effects of feeding eleostearic (18:3) conjugated fatty acids on pig growth, carcass characteristics, and fat firmness. Twenty-four pigs (barrows, castrated males, from PIC genetics) with a capacity for high rates of daily lean growth and reduced back fat were randomly assigned by litter mates, weight, and block to three dietary treatments. Group one was fed normal corn feed, group two received normal corn feed supplemented with CLA, and the third group received normal corn feed supplemented with conjugated linolenic acids, i.e., ClnAs (18:3 conjugated fatty acids). Pigs were penned individually and identified by ear tattoo. […]
Live weights were recorded to determine average daily gains Phase 1 (150 to 200 lbs), and Phase 2 (200 to 250 lbs). […]
When pigs reached 250 pounds body weight they were slaughtered, processed and standard carcass measurements were collected. […] Bellies from the eight pigs in each study group were evaluated for fat firmness evaluated by measuring belly thickness before and after compression. […] Fat compression was quantified by subtracting the compressed belly thickness from the initial belly thickness. Belly thickness was measured using a micrometer. Data were analyzed as a randomized complete block design using the GLM (General Linear Model) procedure of SAS (Statistical Analysis Systems). […]

Conjugated linoleic acid [NC + CLA]
fat firmness in pigs (in words) (addition to NC diets, versus NC diet): greater fat firmness | Pork Belly Compression (initial minus compressed belly thickness, 50 lb weight for one hour, 0.50% conjugated fatty acid in diet, smaller number = greater firmness, 8 pigs per group): 28.0 mm
